Measured values from PubChem BioAssay AID330 (DTP/NCI, 2004).
Values joined by “and” are separate entries in the source; they are usually repeats but may differ in a detail not shown here. Identical values can stand only once. Toxic doses and inconclusive results are not listed.

System: P388 leukemia ip, CD2F1 mice, survival T/C
Assay: NCI In Vivo Anticancer Drug Screen. Data for tumor model P388 Leukemia (intraperitoneal) in CD2F1 (CDF1) mice
Settings: endpoint: median survival time, higher = longer survival
Summary of the method: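 Mice carrying the transplanted tumor received test compound or vehicle. Survival was recorded in each group, and the value is the treated-group measurement divided by that of the vehicle-treated control group.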

[1] = dose: 50.0 mg/kg/injection, schedule: Q01DX009 (ip), vehicle: Klucel (hydroxypropylcellulose) (HPC)
[2] = dose: 100.0 mg/kg/injection, schedule: Q01DX009 (ip), vehicle: saline with Tween-80
[3] = dose: 50.0 mg/kg/injection, schedule: Q01DX009 (ip), vehicle: saline with Tween-80

Q: `N#CC(c1ccc2c(c1)OCO2)N1CCCC1` (stereo unspecified) was tested. Which T/C (dose: 12.5 mg/kg/injection, schedule: Q01DX001 (ip), vehicle: Klucel (hydroxypropylcellulose) (HPC)) did it give?
A: 108 % of control

Q: What about the T/C (dose: 25.0 mg/kg/injection, schedule: Q01DX001 (ip), vehicle: Klucel (hydroxypropylcellulose) (HPC)) of the same compound?
A: 108 % of control

Q: And the T/C (dose: 100.0 mg/kg/injection, schedule: Q01DX001 (ip), vehicle: Klucel (hydroxypropylcellulose) (HPC))?
A: 100 % of control

Q: What about the T/C (dose: 400.0 mg/kg/injection, schedule: Q01DX001 (ip), vehicle: Klucel (hydroxypropylcellulose) (HPC)) of the same compound?
A: 99 % of control

Q: What does the source list for `CC(C)(C)N1CC1C#N` (stereo unspecified)?
A: T/C (dose: 3.13 mg/kg/injection, schedule: Q01DX009 (ip), vehicle: saline): 111 % of control; T/C (dose: 6.25 mg/kg/injection, schedule: Q01DX009 (ip), vehicle: saline): 104 % of control; T/C (dose: 12.5 mg/kg/injection, schedule: Q01DX009 (ip), vehicle: saline): 101 % of control

Q: How did the T/C (dose: 12.5 mg/kg/injection, schedule: Q01DX005 (ip), vehicle: saline with Tween-80) turn out when `C=CCc1ccc(OCCN(CC)CC)c(OC)c1` was run?
A: 117 % of control

Q: And the T/C (dose: 25.0 mg/kg/injection, schedule: Q01DX005 (ip), vehicle: saline with Tween-80)?
A: 113 % of control

Q: What about the T/C (dose: 50.0 mg/kg/injection, schedule: Q01DX005 (ip), vehicle: saline with Tween-80) of the same compound?
A: 98 % of control

Q: With `Oc1ccc([C@H]2Oc3c(c(O)cc4c3C3c5c(O)cc(O)cc5OC(c5ccc(O)cc5)(O4)[C@H]3O)CC2O)cc1` (stereo partly specified) as the compound, how does the T/C (dose: 1.0 mg/kg/injection, schedule: Q01DX005 (ip), vehicle: Klucel (hydroxypropylcellulose) (HPC)) read?
A: 103 % of control

Q: What about the T/C (dose: 2.0 mg/kg/injection, schedule: Q01DX005 (ip), vehicle: Klucel (hydroxypropylcellulose) (HPC)) of the same compound?
A: 103 % of control

Q: And the T/C (dose: 4.0 mg/kg/injection, schedule: Q01DX005 (ip), vehicle: Klucel (hydroxypropylcellulose) (HPC))?
A: 110 % of control

Q: What about the T/C (dose: 8.0 mg/kg/injection, schedule: Q01DX005 (ip), vehicle: Klucel (hydroxypropylcellulose) (HPC)) of the same compound?
A: 103 % of control

Q: What does the source list for `CCCNCC(O)COc1ccc2c3c(c(=O)oc2c1)CCC3` (stereo unspecified)?
A: T/C (dose: 60.0 mg/kg/injection, schedule: Q01DX005 (ip), vehicle: Klucel (hydroxypropylcellulose) (HPC)): 96 % of control; T/C (dose: 120.0 mg/kg/injection, schedule: Q01DX005 (ip), vehicle: Klucel (hydroxypropylcellulose) (HPC)): 96 % of control

Q: Which results are given for `Cc1ncc([N+](=O)[O-])n1CCOC(N)=O`?
A: T/C [1]: 100 % of control; T/C (dose: 100.0 mg/kg/injection, schedule: Q01DX009 (ip), vehicle: Klucel (hydroxypropylcellulose) (HPC)): 99 % of control; T/C (dose: 200.0 mg/kg/injection, schedule: Q01DX009 (ip), vehicle: Klucel (hydroxypropylcellulose) (HPC)): 99 % of control

Q: What does the source list for `CN(C)c1cnc(N)nc1N`?
A: T/C (dose: 25.0 mg/kg/injection, schedule: Q01DX005 (ip), vehicle: saline): 95 % of control and 97 % of control; T/C (dose: 50.0 mg/kg/injection, schedule: Q01DX005 (ip), vehicle: saline): 97 % of control; T/C (dose: 100.0 mg/kg/injection, schedule: Q01DX005 (ip), vehicle: saline): 95 % of control

Q: With `C=C(C)C1C/C=C(\C)CC/C=C(\C)CC/C=C(\C)CC1` (stereo unspecified) as the compound, how does the T/C (dose: 18.75 mg/kg/injection, schedule: Q01DX009 (ip), vehicle: saline + Tween-80 + alcohol) read?
A: 93 % of control

Q: What about the T/C (dose: 37.5 mg/kg/injection, schedule: Q01DX009 (ip), vehicle: saline + Tween-80 + alcohol) of the same compound?
A: 101 % of control

Q: What about the T/C (dose: 75.0 mg/kg/injection, schedule: Q01DX009 (ip), vehicle: saline + Tween-80 + alcohol) of the same compound?
A: 102 % of control

Q: And the T/C (dose: 150.0 mg/kg/injection, schedule: Q01DX009 (ip), vehicle: saline + Tween-80 + alcohol)?
A: 99 % of control

Q: `COC1=C2C[C@@H](C)C[C@@H](OC)[C@@H](O)[C@H](C)/C=C(\C)[C@@H](OC(N)=O)[C@H](OC)/C=C\C=C(/C)C(=O)NC(=CC1=O)C2=O` was tested. Which T/C (dose: 0.75 mg/kg/injection, schedule: Q01DX009 (ip), vehicle: saline with Tween-80) did it give?
A: 114 % of control

Q: What about the T/C (dose: 1.5 mg/kg/injection, schedule: Q01DX009 (ip), vehicle: saline with Tween-80) of the same compound?
A: 115 % of control

Q: For `CCn1c2ccccc2c2ccc(N=Cc3cccc4ccccc34)cc21`, which T/C (dose: 100.0 mg/kg/injection, schedule: Q04DX003 (ip), vehicle: saline + alcohol) is on record?
A: 105 % of control

Q: And the T/C (dose: 200.0 mg/kg/injection, schedule: Q04DX003 (ip), vehicle: saline + alcohol)?
A: 97 % of control

Q: What about the T/C (dose: 400.0 mg/kg/injection, schedule: Q04DX003 (ip), vehicle: saline + alcohol) of the same compound?
A: 105 % of control

Q: For `Cc1c[n+]([O-])ccc1Br`, which T/C (dose: 6.25 mg/kg/injection, schedule: Q01DX009 (ip), vehicle: water) is on record?
A: 99 % of control

Q: What about the T/C (dose: 12.5 mg/kg/injection, schedule: Q01DX009 (ip), vehicle: water) of the same compound?
A: 90 % of control

Q: What about the T/C (dose: 25.0 mg/kg/injection, schedule: Q01DX009 (ip), vehicle: water) of the same compound?
A: 100 % of control

Q: And the T/C (dose: 50.0 mg/kg/injection, schedule: Q01DX009 (ip), vehicle: water)?
A: 101 % of control

Q: For `CN(C)C(C)(C)P(=O)(O)O`, which T/C [2] is on record?
A: 100 % of control

Q: What about the T/C (dose: 200.0 mg/kg/injection, schedule: Q01DX009 (ip), vehicle: saline with Tween-80) of the same compound?
A: 100 % of control

Q: And the T/C (dose: 400.0 mg/kg/injection, schedule: Q01DX009 (ip), vehicle: saline with Tween-80)?
A: 100 % of control

Q: With `COc1cc(/C=C\C=O)cc(OC)c1OC` as the compound, how does the T/C (dose: 100.0 mg/kg/injection, schedule: Q04DX002 (ip), vehicle: saline with Tween-80) read?
A: 99 % of control

Q: And the T/C (dose: 200.0 mg/kg/injection, schedule: Q04DX002 (ip), vehicle: saline with Tween-80)?
A: 110 % of control

Q: What about the T/C (dose: 400.0 mg/kg/injection, schedule: Q04DX002 (ip), vehicle: saline with Tween-80) of the same compound?
A: 108 % of control

Q: `CC(=O)c1cc(Cl)ccc1OCC(O)CNc1ccc(Cl)cc1C(=O)c1ccccc1` (stereo unspecified) was tested. Which T/C (dose: 60.0 mg/kg/injection, schedule: Q01DX005 (ip), vehicle: saline with Tween-80) did it give?
A: 90 % of control

Q: And the T/C (dose: 120.0 mg/kg/injection, schedule: Q01DX005 (ip), vehicle: saline with Tween-80)?
A: 92 % of control

Q: What about the T/C (dose: 240.0 mg/kg/injection, schedule: Q01DX005 (ip), vehicle: saline with Tween-80) of the same compound?
A: 86 % of control

Q: With `Cc1noc(/N=N/N(C)c2ccccc2)c1C` as the compound, how does the T/C [3] read?
A: 103 % of control

Q: And the T/C [2]?
A: 96 % of control

Q: With `CC(=O)Nc1ccc(OCCOC(=O)Nc2ccc(C)cc2[N+](=O)[O-])cc1` as the compound, how does the T/C [1] read?
A: 88 % of control

Q: With `C=CO/C(C)=C(\[Se]c1ccccc1)C(C)=O` as the compound, how does the T/C (dose: 50.0 mg/kg/injection, schedule: Q01DX009 (ip), vehicle: saline) read?
A: 99 % of control

Q: What about the T/C (dose: 100.0 mg/kg/injection, schedule: Q01DX009 (ip), vehicle: saline) of the same compound?
A: 100 % of control

Q: What about the T/C (dose: 200.0 mg/kg/injection, schedule: Q01DX009 (ip), vehicle: saline) of the same compound?
A: 104 % of control

Q: What does the source list for `C[n+]1c(-c2cc(C(F)(F)F)cc(C(F)(F)F)c2)c2cc(N)ccc2c2ccc(N)cc21`?
A: T/C (dose: 2.5 mg/kg/injection, schedule: Q01DX009 (ip), vehicle: water): 110 % of control; T/C (dose: 5.0 mg/kg/injection, schedule: Q01DX009 (ip), vehicle: water): 115 % of control; T/C (dose: 10.0 mg/kg/injection, schedule: Q01DX009 (ip), vehicle: water): 118 % of control; T/C (dose: 12.5 mg/kg/injection, schedule: Q01DX009 (ip), vehicle: saline with Tween-80): 158 % of control; T/C (dose: 20.0 mg/kg/injection, schedule: Q01DX009 (ip), vehicle: water): 152 % of control; T/C (dose: 25.0 mg/kg/injection, schedule: Q01DX009 (ip), vehicle: saline with Tween-80): 166 % of control; T/C [3]: 196 % of control; T/C (dose: 80.0 mg/kg/injection, schedule: Q01DX009 (ip), vehicle: water): 111 % of control

Q: Which T/C (dose: 100.0 mg/kg/injection, schedule: Q04DX003 (ip), vehicle: saline) does the source give for `C=CN1CCCC1=O` here?
A: 104 % of control

Q: What about the T/C (dose: 200.0 mg/kg/injection, schedule: Q04DX003 (ip), vehicle: saline) of the same compound?
A: 100 % of control

Q: And the T/C (dose: 0.25 % in 0.5 ml injection vol, schedule: Q01DX009 (ip), vehicle: water)?
A: 100 % of control

Q: What about the T/C (dose: 400.0 mg/kg/injection, schedule: Q04DX003 (ip), vehicle: saline) of the same compound?
A: 100 % of control

Q: And the T/C (dose: 0.5 % in 0.5 ml injection vol, schedule: Q01DX009 (ip), vehicle: water)?
A: 107 % of control

Q: And the T/C (dose: 1.0 % in 0.5 ml injection vol, schedule: Q01DX009 (ip), vehicle: water)?
A: 100 % of control and 102 % of control

Q: What about the T/C (dose: 2.0 % in 0.5 ml injection vol, schedule: Q01DX009 (ip), vehicle: water) of the same compound?
A: 100 % of control and 98 % of control

Q: And the T/C (dose: 4.0 % in 0.5 ml injection vol, schedule: Q01DX009 (ip), vehicle: water)?
A: 102 % of control and 104 % of control and 108 % of control

Q: What about the T/C (dose: 8.0 % in 0.5 ml injection vol, schedule: Q01DX009 (ip), vehicle: water) of the same compound?
A: 102 % of control and 109 % of control and 92 % of control

Q: And the T/C (dose: 16.0 % in 0.5 ml injection vol, schedule: Q01DX009 (ip), vehicle: water)?
A: 100 % of control and 103 % of control and 95 % of control

Q: For `C1CN2CCO[Si](CC[Si]34OCCN(CCO3)CCO4)(O1)OCC2`, which T/C (dose: 50.0 mg/kg/injection, schedule: Q01DX005 (ip), vehicle: Klucel (hydroxypropylcellulose) (HPC)) is on record?
A: 106 % of control

Q: And the T/C (dose: 100.0 mg/kg/injection, schedule: Q01DX005 (ip), vehicle: Klucel (hydroxypropylcellulose) (HPC))?
A: 113 % of control

Q: And the T/C (dose: 200.0 mg/kg/injection, schedule: Q01DX005 (ip), vehicle: Klucel (hydroxypropylcellulose) (HPC))?
A: 94 % of control
